Experimental data: ChEMBL document CHEMBL1147400, “Novel antimitotic dibenzocyclo-octadiene lignan constituents of the stem bark of Steganotaenia araliacea” (1993)
In brackets after ≈: the same amount, converted by molar mass.

What was measured:
LNCaP = assay: Cytotoxicity against human LNCAP cells; format: functional; settings: read-out: ED50 (the source's name)
Lu1 = assay: Cytotoxicity against human Lu1 cells; format: functional; settings: read-out: ED50 (the source's name)
[1] = Cytotoxicity against multidrug-resistant human KBV1 cells; format: functional; settings: KB-V1, read-out: ED50 (the source's name)
KB = assay: Cytotoxicity against human KB cells; format: functional; settings: read-out: ED50 (the source's name)
HT = assay: Cytotoxicity against human HT cells; format: functional; settings: read-out: ED50 (the source's name)
[2] = Cytotoxicity against human BC1 cells; format: functional; settings: read-out: ED50 (the source's name)
A-431 = assay: Cytotoxicity against human A431 cells; format: functional; settings: read-out: ED50 (the source's name)
[3] = Antimitotic activity against rat ASK cells assessed as reversal of astrocyte morphology at 0.032 ug/ml; format: functional
[4] = Antimitotic activity against rat ASK cells assessed as reversal of astrocyte morphology at 0.16 ug/ml; format: functional
[5] = Antimitotic activity against rat ASK cells assessed as reversal of astrocyte morphology at 0.8 ug/ml; format: functional
[6] = Antimitotic activity against rat ASK cells assessed as reversal of astrocyte morphology at 4 ug/ml; format: functional
[7] = Antimitotic activity against rat ASK cells assessed as reversal of astrocyte morphology at 20 ug/ml; format: functional
[8] = Antimitotic activity against rat ASK cells assessed as reversal of astrocyte morphology at 100 ug/ml; format: functional
Col2 = assay: Cytotoxicity against human Col2 cells; format: functional; settings: read-out: ED50 (the source's name)
[9] = Antimitotic activity against rat ASK cells assessed as reversal of astrocyte morphology at 0.0064 ug/ml; format: functional
SK-MEL-2 = assay: Cytotoxicity against human SK-MEL-2 cells; format: functional; settings: read-out: ED50 (the source's name)
[10] = Cytotoxicity against human U373 cells; format: functional, U-373MG ATCC; settings: U373 MG, read-out: ED50 (the source's name)
ZR-75-1 = assay: Cytotoxicity against human ZR-75-1 cells; format: functional; settings: read-out: ED50 (the source's name)
Bos taurus [11] = organism: Bos taurus; assay: Inhibition of calf brain tubulin polymerization by turbidimetric analysis
Bos taurus [12] = organism: Bos taurus; assay: Inhibition of calf thymus tubulin polymerization by turbidimetric analysis
[13] = Antimitotic activity against rat ASK cells assessed as reversal of astrocyte morphology at 0.00128 ug/ml; format: functional

Structure (SMILES) | EC50 (LNCaP) | EC50 (Lu1) | EC50 [1] | EC50 (KB) | EC50 (HT) | EC50 [2] | EC50 (A-431) | Activity [3] | Activity [4] | Activity [5] | Activity [6] | Activity [7] | Activity [8] | EC50 (Col2) | Activity [9] | EC50 (SK-MEL-2) | EC50 [10] | EC50 (ZR-75-1) | ED50 (Bos taurus [11]) | further results
COc1cc2c(c(OC)c1OC)-c1cc3c(cc1C(=O)[C@H]1COC(=O)[C@@H]1C2)OCO3 | 2 µg/mL (≈ 4.85 µM) | 1 µg/mL (≈ 2.42 µM) | 7.1 µg/mL (≈ 17.2 µM) | 1.5 µg/mL (≈ 3.64 µM) | 0.7 µg/mL (≈ 1.7 µM) | 1.8 µg/mL (≈ 4.36 µM) | > 20 µg/mL | 0% | 0% | 100% | 100% | 100% | 100% | 2.1 µg/mL (≈ 5.09 µM) | 0% | > 20 µg/mL | > 20 µg/mL | > 20 µg/mL | 68.2 µg/mL (≈ 165 µM) | 
COC[C@@H]1Cc2cc3c(cc2-c2c(ccc(OC)c2OC)C[C@@H]1C(=O)OC)OCO3 | > 20 µg/mL | > 20 µg/mL | > 20 µg/mL | > 20 µg/mL | > 20 µg/mL | > 20 µg/mL | > 20 µg/mL |  |  | 0% | 0% | 0% | 40% | > 20 µg/mL |  | > 20 µg/mL | > 20 µg/mL | > 20 µg/mL |  | ED50 (Bos taurus [12]): 76.9 µg/mL (≈ 186 µM)
COC[C@@H]1Cc2cc3c(cc2-c2c(c(OC)cc(OC)c2OC)C[C@H]1C(=O)OC)OCO3 | > 20 µg/mL | 5.5 µg/mL (≈ 12.4 µM) | 0.8 µg/mL (≈ 1.8 µM) | 9.2 µg/mL (≈ 20.7 µM) | 11.5 µg/mL (≈ 25.9 µM) | 17.3 µg/mL (≈ 38.9 µM) | 6.7 µg/mL (≈ 15.1 µM) |  |  |  | 0% | 100% | 100% | 9.6 µg/mL (≈ 21.6 µM) |  | 14.9 µg/mL (≈ 33.5 µM) | 7.8 µg/mL (≈ 17.5 µM) | 4.7 µg/mL (≈ 10.6 µM) |  | ED50 (Bos taurus [12]): 59.3 µg/mL (≈ 133 µM)
COc1cc2c(c(OC)c1OC)-c1ccc(OC)c(=O)cc1[C@@H](NC(C)=O)CC2 [COLCHICINE] | 0.06 µg/mL (≈ 0.15 µM) | 0.02 µg/mL (≈ 0.0501 µM) | 3.5 µg/mL (≈ 8.76 µM) | 0.02 µg/mL (≈ 0.0501 µM) | 0.004 µg/mL (≈ 0.01 µM) | 0.008 µg/mL (≈ 0.02 µM) | 0.002 µg/mL (≈ 0.00501 µM) | 0% | 0% | 70% | 100% | 100% | 100% | 0.001 µg/mL (≈ 0.0025 µM) | 0% | 0.007 µg/mL (≈ 0.0175 µM) | 0.005 µg/mL (≈ 0.0125 µM) | 0.1 µg/mL (≈ 0.25 µM) | 7.4 µg/mL (≈ 18.5 µM) | Activity [13]: 0%
C/C=C(/C)C(=O)O[C@@H]1c2cc3c(cc2-c2c(cc(OC)c(OC)c2OC)C[C@H]2C(=O)OC[C@H]12)OCO3 [EPISTEGANANGIN] | > 20 µg/mL | 6.9 µg/mL (≈ 13.9 µM) | 0.9 µg/mL (≈ 1.81 µM) | 7.4 µg/mL (≈ 14.9 µM) | 7.4 µg/mL (≈ 14.9 µM) | 1.1 µg/mL (≈ 2.22 µM) | > 20 µg/mL |  |  | 0% | 0% | 0% | 100% | > 20 µg/mL |  | 20 µg/mL (≈ 40.3 µM) | > 20 µg/mL | 13.9 µg/mL (≈ 28 µM) | 78.1 µg/mL (≈ 157 µM) | 
COc1cc2c(c(OC)c1OC)-c1cc3c(cc1[C@@H](OC(C)=O)C1COC(=O)[C@H]1C2)OCO3 (stereo not given in full) [STEGANACIN] |  | 0.4 µg/mL (≈ 0.876 µM) | 0.2 µg/mL (≈ 0.438 µM) | 0.1 µg/mL (≈ 0.219 µM) | 0.7 µg/mL (≈ 1.53 µM) | 0.6 µg/mL (≈ 1.31 µM) | 0.2 µg/mL (≈ 0.438 µM) | 0% | 100% | 100% | 100% | 100% | 100% | 0.4 µg/mL (≈ 0.876 µM) |  | > 20 µg/mL | 0.1 µg/mL (≈ 0.219 µM) | 5 µg/mL (≈ 11 µM) | 1.7 µg/mL (≈ 3.72 µM) | Activity (Bos taurus [12]): Dose-dependent effect
C/C=C(/C)C(=O)O[C@H]1c2cc3c(cc2-c2c(cc(OC)c(OC)c2OC)C[C@H]2C(=O)OC[C@@H]21)OCO3 [STEGANANGIN] | 0.9 µg/mL (≈ 1.81 µM) | 0.4 µg/mL (≈ 0.806 µM) | 0.7 µg/mL (≈ 1.41 µM) | 0.4 µg/mL (≈ 0.806 µM) | 0.6 µg/mL (≈ 1.21 µM) | 0.7 µg/mL (≈ 1.41 µM) | > 20 µg/mL | 0% | 50% | 100% | 100% | 100% | 100% | 0.6 µg/mL (≈ 1.21 µM) | 0% | 0.7 µg/mL (≈ 1.41 µM) | > 20 µg/mL | 1 µg/mL (≈ 2.01 µM) | 38.1 µg/mL (≈ 76.7 µM) | 
COc1cc2c(c(OC)c1OC)C[C@H]1COC(=O)[C@@H]1Cc1c-2cc(OC)c(OC)c1OC [STEGANOLIDE A] | 9 µg/mL (≈ 20.2 µM) | 5.5 µg/mL (≈ 12.4 µM) | 0.8 µg/mL (≈ 1.8 µM) | 4.9 µg/mL (≈ 11 µM) | 6.5 µg/mL (≈ 14.6 µM) | 8 µg/mL (≈ 18 µM) | 5.5 µg/mL (≈ 12.4 µM) | 0% | 0% | 0% | 0% | 100% | 100% | 5.1 µg/mL (≈ 11.5 µM) |  | 9.2 µg/mL (≈ 20.7 µM) | 3.1 µg/mL (≈ 6.97 µM) | 8.9 µg/mL (≈ 20 µM) |  | 
